Assay results taken from US7943606B2, “Compositions and methods to control abnormal cell growth” (CanCure Laboratories, LLC, priority 2005, dated 2011).
Where a name gives a salt, the structure may show the parent alone. Read-outs that look alike come from different tables or passages of the source.

Legend:
[1] = tested on: ZR-75-1 cells; assay: Viability of ZR-75-1 breast cancer cells (MTT assay); assay type: cell-based, human; settings: for inhibition at 100 µM: Homo sapiens, ZR-75-1, 72 hours, read-out: Decrease in cell number (maximal decrease = 100%), ZR-75-1
Procedure: (§1) To quantify cell death, around the time when significant and characteristic morphological changes took place, cells were pulse-labeled for 10 minutes with [^3H]thymidine to measure DNA activity as described elsewhere [Tomono, M. and Kiss, Z. (1995), “Ethanol enhances the stimulatory effects of insulin and insulin-like growth factor-I on DNA synthesis in NIH 3T3 fibroblasts,” Biochem. Biophys. Res. Commun. 208, 63-67]. Also, cells were collected as suspensions using trypsin, an established method in cell biology, followed by re-plating of cells in fresh tissue culture medium. If no viable cells were obtained after one week in culture, it meant that the cells at the time of re-plating were dead. Survival values obtained with untreated cells were considered 100%. For the determination of relative number of viable cells after treatments, in most cases the MTT assay was used. This calorimetric assay is based on the ability of living cells, but not dead cells, to reduce 3-(4,5-dimethyl thiazol-2-yl)-2,5-diphenyltetrazolium bromide [Carmichael, J, De Graff, W. G., Gazdar, A. F., Minna, J. D. and Mitchell, J. B. (1987), “Evaluation of tetrazolium-based semi-automated calorimetric assay: Assessment of chemosensitivity testing,” Cancer Res. 47, 936-942]. For this assay, cells were plated in 96-well plates, and the MTT assay was performed both in untreated and treated cell cultures. The MTT assay also was performed at the start of treatments to allow assessment of proliferation rates in the control and treated cell cultures.
(§2) NIH3T3, T47D, A-431, HT-29, and MEL-28 cells were cultured as indicated earlier. CaOV-3 human ovarian cancer cells were cultured in DMEM containing 10% FBS. ZR-75-1 human estrogen receptor-positive breast cancer cells were maintained in RPMI 1640 medium supplemented with 10% FBS. HTB-157 human fetal fibroblasts, MEL-24 human malignant melanoma cells, Hep G2 human hepatoblastoma cells, and CaCO-2 human colon adenocarcinoma cells were maintained in Eagles's MEM containing 10% FBS. MB-231 human estrogen receptor-negative breast cancer cells were maintained in Leibovitz's L-15 medium supplemented with 10% FBS. Cells were seeded into 96-well plates and treated at ˜70-90% confluency. Two hours prior to treatments the medium was changed for fresh 10% serum medium, and then the cells were incubated for 10 days in the absence (□) or presence of 50 μM CCDTHT ? or 100 μM CCDTHT (▪). The medium was changed and the cells were re-treated on days 3 and 6. The MTT assay was used to determine cell viability on day 10. The data, shown in FIG. 6, are the mean±std. dev. of 8 incubations in one experiment. (The experiment was repeated twice with similar results).
(§3) NIH 3T3, MEL-28, MEL-24, CaOV-3, ZR-75-1, and T47D cells were cultured as described above. The OVCAR human ovarian cancer cells were cultured in DMEM containing 10% FBS. Cells were seeded into 96-well plates and used at ˜60-80% confluency. Two hours before treatments the medium was changed for fresh 10% serum medium, and then the cells were incubated for 72 hours in the absence or presence of 100 μM of each of CC compounds as listed in TABLE 3. The inhibitory effects of CC compounds on cell proliferation are expressed as percent decrease compared to untreated cell cultures (the greater the number, the greater the inhibitory effect of the CC compound). […] Also, for the treatment of ovarian cancer and breast cancer, CCDTHT seems to be the best choice (although in this experiment CCompounds21-26 were not tested).

[2] = tested on: HT-29 cells; assay: Viability of HT-29 colon adenocarcinoma cells (MTT assay); assay type: cell-based, human; settings: for inhibition at 100 µM: HT-29, similar comparative study (100 μM, 72 hours), read-out: inhibition of proliferation, HT-29
Procedure: as §1
(§4) The NIH 3T3 (normal) mouse fibroblast, A431 human epidermoid adenocarcinoma, and MCF-7 human breast cancer cells were cultured in DMEM medium containing 10% FBS. The MEL-28 human melanoma cells were cultured in MEM medium containing 10% FBS. The HT-29 human colon adenocarcinoma cells were cultured in McCoy's 5a medium containing 10% FBS. The A549 human lung carcinoma cells were maintained in Ham's F12K medium containing 10% FBS. Cells were seeded into 96-well plates and treated at ˜70-90% confluency. Two hours before treatments the medium was changed for fresh 10% serum medium, and then the cells were incubated for 72 hours in the presence of 0-200 μM of CCompound1 (●) or CCompound3 (CCDTHT) (▴), as indicated. The MTT assay was used to determine cell viability after treatments. The values, shown in FIGS. 5A-5F and expressed as percent decrease in viability compared to the untreated control cells, are the mean±std. dev. of 8 incubations in one experiment. Similar results were obtained in another experiment.
as §2, with “The MTT assay was used to determine cell viability on day 10. The data, shown in FIG. 6, are the mean±std. dev. of 8 incubations in one experiment. (The experiment was repeated twice with similar results).” left out

[3] = tested on: MEL-24 cells; assay: Viability of MEL-24 melanoma cells (MTT assay); assay type: cell-based; settings: Homo sapiens; for inhibition at 100 µM: 72 hours, read-out: Decrease in cell number (maximal decrease = 100%), MEL-24
Procedure: as §1, §2, §3

[4] = tested on: NIH 3T3 cells; assay: Viability of NIH 3T3 normal fibroblasts (MTT assay); assay type: cell-based; settings: 72 hours; for cytotoxicity at 100 µM: Mus musculus, NIH3T3, read-out: Decrease in cell number (maximal decrease = 100%), NIH 3T3
Procedure: as §1, §4, §2
(§5) NIH 3T3, MEL-28, MEL-24, CaOV-3, ZR-75-1, and T47D cells were cultured as described above. The OVCAR human ovarian cancer cells were cultured in DMEM containing 10% FBS. Cells were seeded into 96-well plates and used at ˜60-80% confluency. […]

[5] = tested on: CaOV-3 cells; assay: Viability of CaOV-3 ovarian cancer cells (MTT assay); assay type: cell-based, human; settings: for inhibition at 100 µM / IC50: Homo sapiens, Caov-3, 72 hours; for inhibition at 100 µM: read-out: Decrease in cell number (maximal decrease = 100%), CaOV-3
Procedure: as §1, §2
The MRC-5 cell line is derived from normal lung tissue of a […] fetus. MRC-5 cells were maintained and treated in Eagles Medium with Hanks' BSS containing 10% fetal bovine serum. The T47D cells were maintained and treated in RPMI 1640 medium supplemented with 0.2 IU bovine insulin and 10% fetal bovine serum. The CaOV-3 human ovarian cancer cells were cultured in Dulbecco's modified Eagle's medium containing 10% fetal bovine serum. The cells were seeded in 96-well plates either at 10,000 cells per well or 30,000 cells per well to examine the antiproliferative and cytotoxic effects of various CC compounds, respectively. The cells were incubated for 24 hours, then the medium was changed followed by the treatments of cultures 2 hours after the medium change. At this point, cell cultures seeded at 10,000 cells per well and 30,000 cells per well were 25-35% and 80-90% confluent, respectively. Incubations were continued for 72 hours followed by the MTT assay. The data, shown in TABLE 2, indicate the inhibitory concentrations of CC compounds (IC50) required for 50% decrease in the number of viable cells. These numbers are calculated from the mean of 4 incubations in one experiment (the experiment was repeated once with similar results). […]

[6] = tested on: PC-3 cells; assay: Proliferation of PC-3 prostate cancer cells; assay type: cell-based; settings: Homo sapiens, similar comparative study (100 μM, 72 hours)
[7] = tested on: A549 cells; assay: Viability of A549 lung carcinoma cells (MTT assay); assay type: cell-based, human
Procedure: To quantify cell death, around the time when significant and characteristic morphological changes took place, cells were pulse-labeled for 10 minutes with [^3H]thymidine to measure DNA activity as described elsewhere [Tomono, M. and Kiss, Z. (1995), “Ethanol enhances the stimulatory effects of insulin and insulin-like growth factor-I on DNA synthesis in NIH 3T3 fibroblasts,” Biochem. Biophys. Res. Commun. 208, 63-67]. Also, cells were collected as suspensions using trypsin, an established method in cell biology, followed by re-plating of cells in fresh tissue culture medium. If no viable cells were obtained after one week in culture, it meant that the cells at the time of re-plating were dead. […]
The NIH 3T3 (normal) mouse fibroblast, A431 human epidermoid adenocarcinoma, and MCF-7 human breast cancer cells were cultured in DMEM medium containing 10% FBS. […] The values, shown in FIGS. 5A-5F and expressed as percent decrease in viability compared to the untreated control cells, are the mean±std. dev. of 8 incubations in one experiment. […]
(§6) NIH 3T3, MEL-28, MEL-24, CaOV-3, ZR-75-1, and T47D cells were cultured as described above. […] The inhibitory effects of CC compounds on cell proliferation are expressed as percent decrease compared to untreated cell cultures (the greater the number, the greater the inhibitory effect of the CC compound). […]

[8] = tested on: MB-231 cells; assay: Viability of MB-231 breast cancer cells (MTT assay); assay type: cell-based, human
Procedure: To quantify cell death, around the time when significant and characteristic morphological changes took place, cells were pulse-labeled for 10 minutes with [^3H]thymidine to measure DNA activity as described elsewhere [Tomono, M. and Kiss, Z. (1995), “Ethanol enhances the stimulatory effects of insulin and insulin-like growth factor-I on DNA synthesis in NIH 3T3 fibroblasts,” Biochem. Biophys. Res. Commun. 208, 63-67]. Also, cells were collected as suspensions using trypsin, an established method in cell biology, followed by re-plating of cells in fresh tissue culture medium. If no viable cells were obtained after one week in culture, it meant that the cells at the time of re-plating were dead. Survival values obtained with untreated cells were considered 100%. For the determination of relative number of viable cells after treatments, in most cases the MTT assay was used. […]
as §6

[9] = tested on: A-431 cells; assay: Viability of A-431 epidermoid adenocarcinoma cells (MTT assay); assay type: cell-based, human; settings: for inhibition at 100 µM: Homo sapiens, A-431, similar comparative study (100 μM, 72 hours), read-out: inhibition of proliferation, A-431
Procedure: as §1, §4, §2, §5

Structure (SMILES) | inhibition at 100 µM [1] [%] | inhibition at 100 µM [3] [%] | cytotoxicity at 100 µM [4] [%] | inhibition at 100 µM [5] [%] | inhibition at 100 µM [9] [%] | also measured
CC[N+](CC)(CCO)Cc1ccc2sc3ccccc3c(=O)c2c1 [CCcompound14, 2-Hydroxy-N,N-Diethyl-N-[(9-oxo-9H-thioxanthen-2-yl)methyl]-ethanaminium bromide] | 53 | 21 | 30 | 69 | – | inhibition at 100 µM ([2]; Homo sapiens): 63 to 71%
C[N+](C)(CCO)Cc1ccc2sc3ccccc3c(=O)c2c1 [CCcompound13, 2-Hydroxy-N,N-dimethyl-N-[(9-oxo-9H-thioxanthen-2-yl)methyl]-ethanaminium bromide] | 48 | 12 | 25 | 53 | – | –
CC[N+](C)(C)CCCOCc1ccc2sc3ccccc3c(=O)c2c1 [CCcompound11, N,N-Dimethyl-N-ethyl-3-[(9-oxo-9H-thioxanthen-2-yl)methoxy]-propane-1-aminium iodide] | 75 | 20 | 21 | 66 | – | inhibition at 100 µM [6]: 54 to 55%; inhibition at 100 µM ([7]; Homo sapiens, A549, similar comparative study (100 μM, 72 hours), read-out: inhibition of proliferation, A549): 68%; inhibition at 100 µM ([8]; Homo sapiens, similar comparative study (100 μM, 72 hours), read-out: inhibition of proliferation, MB-231): 75%; inhibition at 100 µM ([2]; Homo sapiens): 63 to 71%
C[N+](C)(CCCO)Cc1ccc2sc3ccccc3c(=O)c2c1 [CCcompound15, 3-Hydroxy-N,N-dimethyl-N-[(9-oxo-9H-thioxanthen-2-yl)methyl]propane-1-aminium bromide] | 41 | 0 | 11 | 28 | – | –
CC[NH+](CC)CCCOCc1ccc2sc3ccccc3c(=O)c2c1 [CCcompound12, 2-{[3-(Diethylamino)propoxy]meth-yl}-9H-thioxanthen-9-one hydrochloride] | 17 | 73 | 0 | 80 | 68 to 74 | –
CC[N+](CC)(CCCO)Cc1ccc2sc3ccccc3c(=O)c2c1 [CCcompound16, 3-Hydroxy-N,N-diethyl-N-[(9-oxo-9H-thioxanthen-2-yl)methyl]-propane-1-aminium bromide] | 39 | 0 | 19 | 12 | – | –
CC[N+](CC)(CC)CCCOCc1ccc2sc3ccccc3c(=O)c2c1 [CCcompound9, N,N,N-Triethyl-3-[(9-oxo-9H-thioxanthen-2-yl)methoxy]-propane-1-aminium iodide] | 70 | 4 | 22 | 45 | 68 to 74 | –
CC[N+](C)(CC)CCOCc1ccc2sc3ccccc3c(=O)c2c1.[I-] [CCDTHT, N,N-diethyl-N-methyl-2-[(9-oxo-9H-thioxanthen-2-yl)methoxy]-ethanaminium iodide] | 74 | 15 | 29 | 84 | 68 to 74 | inhibition at 100 µM [6]: 54 to 55%; reduction of cell numbers, A-549, CCDTHT versus CCompound1 ([7]; 0-200 μM, 72 hours, MTT): clearly more effective than CCompound1; sensitivity to the inhibitory actions, ZR-75-1 ([1]; 50 and 100 μM, 10 days, MTT): very sensitive; sensitivity to the inhibitory actions, MB-231 ([8]; 50 and 100 μM, 10 days, MTT): moderately sensitive; reduction of cell numbers, HT-29, CCDTHT versus CCompound1 ([2]; 0-200 μM, 72 hours, MTT): clearly more effective than CCompound1; decrease in the number of viable cells versus 0.5 mM HC-3, HT-29 ([2]; 100 μM, 72 hours, MTT): much greater decreases in the number of viable cells compared to 0.5 mM HC-3; cytotoxicity at 100 µM ([2]; Homo sapiens, HT-29, 240 h, 100 μM, 10 days, MTT, read-out: reduction in the number of viable cells, HT-29): ≤ 50%; cytotoxicity at 100 µM ([3]; 240 h, 10 days, MTT, read-out: reduction in the number of viable cells, MEL-24): ≤ 50%; sensitivity compared with HaCaT cells, NIH 3T3 fibroblasts ([4]; 50 and 100 μM, MTT): significantly less sensitive; decrease in viability, A-431 ([9]; 0-200 μM, 72 hours, MTT): similarly large effects; sensitivity to the inhibitory actions, A-431 ([9]; 50 and 100 μM, 10 days, MTT): very sensitive; sensitivity to the inhibitory actions, CaOV-3 ([5]; 50 and 100 μM, 10 days, MTT): very sensitive; IC50 ([5]; 10,000 cells per well (25-35% confluent), MTT, read-out: IC50 values, Antiproliferative, CaOV-3): 38 µM; IC50 ([5]; 30,000 cells per well (80-90% confluent), MTT, read-out: IC50 values, Cytotoxic, CaOV-3): 39 µM
CC[N+](C)(CC)CCCOCc1ccc2sc3ccccc3c(=O)c2c1 [CCcompound10, N,N-Diethyl-N-methyl-3-[(9-oxo-9H-thioxanthen-2-yl)methoxy]-propane-1-aminium iodide] | 65 | 15 | 21 | 45 | – | –
